Columns and labels:
[1] = system: Influenza A (strain A/PR/8/34); assay: Anti-influenza cytopathic effect (CPE) assay in MDCK cells, prophylactic regimen (Example 7); assay type: cell-based; parameters: key to CPE score: 1: Complete monolayer with few gaps or dead cells; 2: Some gaps in the monolayer; dead cells more evident; 3: Increasing number of gaps in the monolayer concurrent with dead cells; 4: Gaps widely distributed throughout the monolayer and of increasing size; 5: Large holes forming as smaller gaps merge; copious dead cells evident; 6: Monolayer integrity lost. Small islands of attached cells amid predominantly dead cells; conditions: for CPE score: Influenza A, MDCK
[2] = system: Influenza B (strain B/Lee/40); assay: as above; assay type: cell-based; parameters: key to CPE score: 1: Complete monolayer with few gaps or dead cells; 2: Some gaps in the monolayer; dead cells more evident; 3: Increasing number of gaps in the monolayer concurrent with dead cells; 4: Gaps widely distributed throughout the monolayer and of increasing size; 5: Large holes forming as smaller gaps merge; copious dead cells evident; 6: Monolayer integrity lost. Small islands of attached cells amid predominantly dead cells; conditions: for CPE score: Influenza B, MDCK, virus + DMSO control 4
[3] = system: all three transformed neuronal cell lines (IMR32, NG108, NSC34); assay: MTT (CIMA) cell proliferation assay (Example 4); conditions: 72 h post-treatment; 0.5-250 μg/ml
Procedure: (§1) Compound preparation: Stock solutions of test compounds were prepared in dimethylsulfoxide (DMSO) at 250 mg/ml. Working concentrations of 10 mg/ml were subsequently prepared from the stock solution and stored in 50 μl aliquots at −20° C. until used.
Cells and cell culture: Three classes of cells were evaluated: 1) neuroblastoma cells, 2) neuroglioma cells, and 3) non-transformed human neurons (see below). All cells were maintained in appropriate culture medium supplemented with 10% fetal calf serum (FCS) and antibiotics in a humidified, 5% CO2 environment. Cells were passaged as required by trypsinization.
Assay conditions: The effects of the test compounds were assessed following acute and chronic exposure conditions. […] Each compound was evaluated over a broad range of concentrations (0, 0.5, 1, 5, 10, 50, 100 and 250 μg/ml) with cells treated with equivalent concentrations of vehicle (DMSO) serving as controls.
Cell proliferation assay: Cell proliferation was assessed using a standard colorimetric indicator of metabolic activity (CIMA) assay. In this assay, the reduction of yellow tetrazolium salt (MTT) to purple formazan by mitochondrial reductase enzymes in viable cells was evaluated as a measure of metabolic activity to determine the extent of cell proliferation within a culture. […]

[4] = system: MDCK cells; assay: Cytotoxicity assay (MTT/CIMA) in MDCK cells (Example 7)
[5] = system: U373 astroglioma cells; assay: MTT (CIMA) cell proliferation assay, acute and chronic exposure (Example 3); conditions: acute (24 h) and chronic (72 h) treatment, 0.5-250 μg/ml
Procedure: as §1
(§2) Cells and cell culture: Proof-of-principle studies in this example focused on two human brain cancer cell lines, namely SH-SY5Y neuroblastoma cells and U373 astroglioma cells. […] Both cells were maintained in (50:50) F12:DMEM medium supplemented with 10% fetal calf serum (FCS) and antibiotics in a humidified, 5% CO2 environment. Cells were passaged as required by trypsinization.
(§3) Assays conditions: The effects of the test compounds were assessed following acute and chronic exposure conditions. […] The test compounds were evaluated over a broad range of concentrations (0, 0.5, 1, 5, 10, 50, 100 and 250 μg/ml) with cells treated with equivalent concentrations of vehicle (DMSO) serving as controls.
(§4) Cell proliferation assay: Cell proliferation was assessed using a standard colorimetric indicator of metabolic activity (CIMA) assay. In this assay, the reduction of yellow tetrazolium salt (MTT) to purple formazan by mitochondrial reductase enzymes in viable cells was evaluated as a measure of metabolic activity to determine the extent of cell proliferation within a culture. The resulting colour change that conferred a change in absorbance was quantified using a spectrophotometer (λ=500-600). Samples were diluted as required to ensure that values obtained with the MTT assay fell within the linear range of the protocol. Qualitative microscopic evaluation of treated cultures was used to determine if overt cytotoxicity was present and to supplement the quantitative CIMA data.

[6] = system: SH-SY5Y neuroblastoma cells; assay: as above
Procedure: as §1, §2, §3, §4

**Q.** What does the source list for CC(C)(C)OC(=O)N1CCCC1O (centres unmarked) [I(b), tert-butyl 2-hydroxypyrrolidine-1-carboxylate]?
**A.** CPE score ([1]; 0.5 μg/ml, virus + DMSO control 3): 1; CPE score ([1]; 0.5 μg/ml, virus + DMSO control 4): 2; CPE score ([1]; 1.0 μg/ml, virus + DMSO control 3): 1; CPE score ([1]; 1.0 μg/ml, virus + DMSO control 4): 2; CPE score ([1]; 5.0 μg/ml, virus + DMSO control 3): 1; CPE score ([1]; 5.0 μg/ml, virus + DMSO control 4): 3; CPE score ([1]; 10 μg/ml, virus + DMSO control 3): 3; CPE score ([1]; 10 μg/ml, virus + DMSO control 4): 4; CPE score ([1]; 25 μg/ml, virus + DMSO control 3): 3; CPE score ([1]; 25 μg/ml, virus + DMSO control 4): 4; CPE score ([1]; 50 μg/ml, virus + DMSO control 3): 3; CPE score ([1]; 50 μg/ml, virus + DMSO control 4): 4; CPE score ([1]; 100 μg/ml, virus + DMSO control 3): 3; CPE score ([1]; 100 μg/ml, virus + DMSO control 4): 4; effect on CPE (summary in words) ([1]; comparatively lower concentrations): lower concentrations more greatly reduced CPE; effect on CPE (summary in words) ([2]; Influenza B infection): little impact on CPE; CPE score ([2]; 24 hpi, 0.5 μg/ml): 3; CPE score ([2]; 24 hpi, 1.0 μg/ml): 4; CPE score ([2]; 24 hpi, 5.0 μg/ml): 4; CPE score ([2]; 24 hpi, 10 μg/ml): 3; CPE score ([2]; 24 hpi, 25 μg/ml): 4; CPE score ([2]; 24 hpi, 50 μg/ml): 3; CPE score ([2]; 24 hpi, 100 μg/ml): 4; CPE score ([2]; 48 hpi, 0.5 μg/ml): 3; CPE score ([2]; 48 hpi, 1.0 μg/ml): 4; CPE score ([2]; 48 hpi, 5.0 μg/ml): 4; CPE score ([2]; 48 hpi, 10 μg/ml): 4; CPE score ([2]; 48 hpi, 25 μg/ml): 4; CPE score ([2]; 48 hpi, 50 μg/ml): 3; CPE score ([2]; 48 hpi, 100 μg/ml): 3; viability/proliferation [3]: dose-dependent decreases in viability/proliferation; Toxicity (MTT), fold changes relative to vehicle controls ([4]; 24 h exposure, 0.5 μg/ml): 1.02 fold; Toxicity (MTT), fold changes relative to vehicle controls ([4]; 24 h exposure, 1.0 μg/ml): 1.07 fold; Toxicity (MTT), fold changes relative to vehicle controls ([4]; 24 h exposure, 5.0 μg/ml): 1.09 fold; Toxicity (MTT), fold changes relative to vehicle controls ([4]; 24 h exposure, 10 μg/ml): 1.00 fold; Toxicity (MTT), fold changes relative to vehicle controls ([4]; 24 h exposure, 25 μg/ml): 1.08 fold; Toxicity (MTT), fold changes relative to vehicle controls ([4]; 24 h exposure, 50 μg/ml): 1.13 fold; Toxicity (MTT), fold changes relative to vehicle controls ([4]; 24 h exposure, 100 μg/ml): 1.09 fold; Toxicity (MTT), fold changes relative to vehicle controls ([4]; 72 h exposure, 0.5 μg/ml): 0.99 fold; Toxicity (MTT), fold changes relative to vehicle controls ([4]; 72 h exposure, 1.0 μg/ml): 1.00 fold; Toxicity (MTT), fold changes relative to vehicle controls ([4]; 72 h exposure, 5.0 μg/ml): 0.94 fold; Toxicity (MTT), fold changes relative to vehicle controls ([4]; 72 h exposure, 10 μg/ml): 0.97 fold; Toxicity (MTT), fold changes relative to vehicle controls ([4]; 72 h exposure, 25 μg/ml): 1.04 fold; Toxicity (MTT), fold changes relative to vehicle controls ([4]; 72 h exposure, 50 μg/ml, decreases exceeding 25% considered toxic): 0.99 fold; Toxicity (MTT), fold changes relative to vehicle controls ([4]; 72 h exposure, 100 μg/ml, decreases exceeding 25% considered toxic): 0.89 fold; cytotoxicity (summary in words) ([4]; higher concentrations (≧25 μg/ml)): did not evidence cytotoxicity; overt cell death / reductions in MTT activity [5]: Neither overt cell death nor significant reductions in MTT activity; decrease in MTT activity ([6]; SH-SY5Y, acute treatment (24 h), 0.25 mg/ml): approximately 30%; change in MTT activity ([6]; SH-SY5Y, acute treatment (24 h), other concentrations evaluated (below 0.25 mg/ml)): No significant change in MTT activity; decrease in MTT activity ([6]; SH-SY5Y, chronic treatment (72 h), 50 μg/ml): 25%; decrease in MTT activity ([6]; SH-SY5Y, chronic treatment (72 h), 100 μg/ml): 25%; decrease in MTT activity ([6]; SH-SY5Y, chronic treatment (72 h), 250 μg/ml): 47%; LD50 ([6]; select cell types, chronic conditions (72 h)): ~0.25 mg/mL

— patent US8916605B2, “Compounds and methods for treating cancer and viral infections” (priority 2009, dated 2014)
